How the values were obtained:
[1] = cited from earlier work
[2] = system: pancreatic adenocarcinoma associated genes; test: TaqMan Array gene expression in MIAPaCa-2, normalized for GAPDH; type: cell-based, Human; conditions: Mia-PACA-2, 24 hs, CBD 3.8, MLT 200, AKBA 7.5 micrograms/ml
Method: Total RNA from untreated or CBD, MLT, AKBA alone and in combination treated cell lines was extracted using Rneasy Mini kit (Qiagen, Milan, Italy). One microgram of total RNA from each sample was subjected to reverse transcription in a total volume of 20 μL using the High-Capacity cDNA Archive Kit (Applied Biosystem, Foster City, […], USA) according to the instructions. cDNAs were analyzed by qRT-PCR performed using an IQ5 Multicolor Real time PCR Detection system. Quantitative real-time gene expression was performed with the TaqMan® Array Human Pancreatic Adenocarcinoma 96-well Plate, containing 92 assays to pancreatic adenocarcinoma associated genes and 4 assays to candidate endogenous control genes, was purchased (Thermo Fisher, Grand Island, NY, USA) and used to evaluate the treatments in modulating PDAC-related genes (Table 1). Measurement of different housekeeping genes (GAPDH; HPRT1; GUSB) on the samples was used to normalize mRNA content. The gene expression levels of treated cell lines were expressed as relative fold compared with untreated or vehicle-treated cells.
To elucidate the molecular events induced by CBD, MLT and AKBA alone and in combination, 92 genes involved in PDAC progression and aggressiveness were evaluated by Taqman Array. Both cell lines were treated with CBD, MLT and AKBA alone and in combination, and the molecular pathways of PDAC associated gene were evaluated.
Target mRNA levels were normalized for GAPDH expression.

[3] = normalized for GAPDH, Akt pathways
[4] = normalized for GAPDH, Akt-pathways
[5] = normalized for GAPDH, DNA repair
[6] = normalized for GAPDH, NfkB pathways
[7] = normalized for GAPDH, Ras pathways
[8] = normalized for GAPDH, TGF patways
[9] = normalized for GAPDH, TGF-patways
[10] = normalized for GAPDH, angiogenesis
[11] = normalized for GAPDH, apoptosis
[12] = normalized for GAPDH, cell cycle
[13] = normalized for GAPDH, inflammation
[14] = normalized for GAPDH, proliferation

CC(=O)O[C@@H]1CC[C@@]2(C)[C@@H](CC[C@]3(C)[C@@H]2C(=O)C=C2[C@@H]4[C@@H](C)[C@H](C)CC[C@]4(C)CC[C@]23C)[C@@]1(C)C(=O)O [AKBA, (3R,4R,4aR,6aR,6bS,8aR,11R,12S,12aR,14aR,14bS)-3-acetyloxy-4,6a,6b,8a,11,12,14b-heptamethyl-14-oxo-1,2,3,4a,5,6,7,8,9,10,11,12,12a, 14a-tetradecahydropicene-4-carboxylic acid]
solubility ([1]; 1:2 solution of DMSO:PBS (pH 7.2)): approximately 0.3 mg/ml
solubility in aqueous buffers ([1]; aqueous buffers): sparingly soluble
GAPDH relative expression ([2]; GAPDH is the normalizer): 1.00
PK3CB relative expression [2, 3]: 0.19
PK3CD relative expression [2, 3]: 0.06
AKT1 relative expression [2, 4]: 0.18
AKT2 relative expression [2, 4]: 0.49
AKT3 relative expression [2, 4]: 0.00
IGF1 relative expression [2, 4]: 0.00
PK3CA relative expression [2, 4]: 0.02
PK3R1 relative expression [2, 4]: 0.04
BRCA2 relative expression [2, 5]: 0.12
MDM2 relative expression [2, 5]: 0.05
TP53 relative expression [2, 5]: 0.35
HSP90AA1 relative expression ([2]; normalized for GAPDH, Heat sock protein): 0.26
NFKB1 relative expression [2, 6]: 0.12
NFKB2 relative expression [2, 6]: 0.12
REL relative expression [2, 6]: 0.09
RELA relative expression [2, 6]: 0.11
RELB relative expression [2, 6]: 0.13
RHOA relative expression [2, 6]: 0.33
RHOB relative expression [2, 6]: 0.06
BRAF relative expression [2, 7]: 0.22
E2F1 relative expression [2, 7]: 0.17
E2F3 relative expression [2, 7]: 0.08
E2F4 relative expression [2, 7]: 0.22
EGF relative expression [2, 7]: 0.00
EGFR relative expression [2, 7]: 0.22
ELK1 relative expression [2, 7]: 0.13
ERBB2 relative expression [2, 7]: 0.08
GRB2 relative expression [2, 7]: 0.46
HBEGF relative expression [2, 7]: 0.53
KRAS relative expression [2, 7]: 0.11
MAP2K1 relative expression [2, 7]: 0.12
MAP2K2 relative expression [2, 7]: 0.12
MAPK1 relative expression [2, 7]: 0.72
MAPK3 relative expression [2, 7]: 0.00
RAF1 relative expression [2, 7]: 0.10
RB1 relative expression [2, 7]: 0.17
SOS1 relative expression [2, 7]: 0.11
TGFB2 relative expression [2, 8]: 0.10
TGFB3 relative expression [2, 8]: 0.05
TGFBR1 relative expression [2, 8]: 0.06
SMAD2 relative expression [2, 9]: 0.04
SMAD3 relative expression [2, 9]: 0.22
SMAD4 relative expression [2, 9]: 0.10
TGFA relative expression [2, 9]: 0.02
TGFB1 relative expression [2, 9]: 0.13
TGFBR2 relative expression [2, 9]: 0.09
FIGF relative expression [2, 10]: 0.00
VEGFA relative expression [2, 10]: 0.41
VEGFB relative expression [2, 10]: 0.16
VEGFC relative expression [2, 10]: 0.11
BCL2L1 relative expression [2, 11]: 0.28
BCL2 relative expression [2, 11]: 0.00
BIRC5 relative expression [2, 11]: 0.26
CCNA2 relative expression [2, 12]: 0.12
CCNB1 relative expression [2, 12]: 0.24
CCND1 relative expression [2, 12]: 0.12
CCND2 relative expression [2, 12]: 0.00
CCNE1 relative expression [2, 12]: 0.12
CCNE2 relative expression [2, 12]: 0.10
CDC42 relative expression [2, 12]: 0.02
CDK2 relative expression [2, 12]: 0.12
CDK4 relative expression [2, 12]: 0.30
CDKN1A relative expression [2, 12]: 0.34
CDKN1B relative expression [2, 12]: 0.12
CDKN2A relative expression [2, 12]: 0.14
CDKN2B relative expression [2, 12]: 0.24
CDKN2C relative expression [2, 12]: 0.14
CDKN2D relative expression [2, 12]: 0.06
IL6 relative expression [2, 13]: 0.00
JAK1 relative expression [2, 13]: 1.32
JAK2 relative expression [2, 13]: 0.05
JAK3 relative expression [2, 13]: 0.04
STAT1 relative expression [2, 13]: 0.34
STAT2 relative expression [2, 13]: 0.12
STAT3 relative expression [2, 13]: 0.20
STAT6 relative expression [2, 13]: 0.12
STATSB relative expression [2, 13]: 0.22
MMP1 relative expression ([2]; normalized for GAPDH, invasion): 0.02
MMP2 relative expression ([2]; normalized for GAPDH, invasion): 0.24
MMP3 relative expression ([2]; normalized for GAPDH, invasion): 0.00
MMP7 relative expression ([2]; normalized for GAPDH, invasion): 0.04
MMP9 relative expression ([2]; normalized for GAPDH, invasion): 0.04
PTGS2 relative expression ([2]; normalized for GAPDH, invasion): 0.10
RAC1 relative expression ([2]; normalized for GAPDH, invasion): 0.12
RAC2 relative expression ([2]; normalized for GAPDH, invasion): 0.01
KIT relative expression [2, 14]: 0.00
NOTCH1 relative expression [2, 14]: 0.06
SRC relative expression [2, 14]: 0.15

Reference: patent publication US20240180872A1, “METHODS AND COMPOUNDS OF CANNABIDIOL, MELATONIN AND AKBA FOR TREATING PANCREATIC CANCER” (priority 2021, published 2024)
